Each structure is given as a SMILES string.

The target of experiment [1] is T1, Polyunsaturated fatty acid 5-lipoxygenase (Rattus norvegicus, UniProt P12527).
T1 sequence (P12527 whole entry): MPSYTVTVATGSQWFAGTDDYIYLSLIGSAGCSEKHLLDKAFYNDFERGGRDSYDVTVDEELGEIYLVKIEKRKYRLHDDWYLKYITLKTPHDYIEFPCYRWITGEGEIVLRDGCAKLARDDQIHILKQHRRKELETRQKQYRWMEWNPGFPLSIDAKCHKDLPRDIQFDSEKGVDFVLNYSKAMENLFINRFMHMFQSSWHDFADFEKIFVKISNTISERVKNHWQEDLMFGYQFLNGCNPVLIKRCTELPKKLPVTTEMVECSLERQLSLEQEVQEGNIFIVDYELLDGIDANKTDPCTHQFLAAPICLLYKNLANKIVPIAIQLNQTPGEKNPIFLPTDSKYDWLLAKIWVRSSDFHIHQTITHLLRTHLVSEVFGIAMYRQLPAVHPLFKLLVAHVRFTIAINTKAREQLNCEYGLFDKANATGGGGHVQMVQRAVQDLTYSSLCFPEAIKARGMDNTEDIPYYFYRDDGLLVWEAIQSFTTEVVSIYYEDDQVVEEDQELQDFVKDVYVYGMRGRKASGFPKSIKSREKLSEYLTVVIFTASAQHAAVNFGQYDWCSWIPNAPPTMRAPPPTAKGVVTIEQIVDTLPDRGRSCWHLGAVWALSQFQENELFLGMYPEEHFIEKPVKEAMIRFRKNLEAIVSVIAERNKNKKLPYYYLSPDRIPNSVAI
The experiment in a line: In vitro inhibition of RBL-1 5-lipoxygenase; Value ranges from 1.0-1.7. It is filed as cell-based.

Experiment [2] addresses T1, Polyunsaturated fatty acid 5-lipoxygenase. The experiment in a line: In vitro inhibition of RBL-1 5-lipoxygenase; Value ranges from 0.9-4.0. It is filed as cell-based.
The target is the same in experiment [3]. The experiment can be described thus: In vitro inhibition of RBL-1 5-lipoxygenase; Value ranges from 1.0-1.5. It is filed as cell-based.
In experiment [4] the test system is Rattus norvegicus. The experiment can be described thus: Inhibition of monocyte accumulation (exudate volume) in a rat pleural exudate model of inflammation at 45 ug administered perorally. It is filed as functional.
Experiment [5] concerns Rattus norvegicus. The experiment in a line: Inhibition of monocyte accumulation (DNA content) in a rat pleural exudate model of inflammation at 45 ug administered perorally. It is filed as functional.
Experiment [6] deals with T1, Polyunsaturated fatty acid 5-lipoxygenase. The experiment in a line: In vitro inhibition of RBL-1 5-lipoxygenase. It is filed as cell-based.
The subject of experiment [7] is Rattus norvegicus. The experiment in a line: (§1) In vivo activity against the release of SRS(slow releasing substance)-A in a rat passive intraperitoneally. The format is functional. Further details: concentration or dose not given beside the values.
Experiment [8] has as its target T1, Polyunsaturated fatty acid 5-lipoxygenase. The experiment can be described thus: In vitro inhibition of RBL-1 5-lipoxygenase; Value ranges from 1.1-1.6. The format is cell-based.
Experiment [9] deals with T2, Polyunsaturated fatty acid 5-lipoxygenase (Rattus norvegicus) (UniProt P12527).
T2 sequence (whole entry): T1 sequence (P12527 whole entry)
The experiment in a line: In vitro inhibition of RBL-1 5-lipoxygenase at 20 uM. It is filed as cell-based.

Experiment [10] has as its target T1, Polyunsaturated fatty acid 5-lipoxygenase. The experiment in a line: In vitro inhibition of RBL-1 5-lipoxygenase; Value ranges from […]. It is filed as cell-based.
Experiment [11] shares this target. The experiment can be described thus: In vitro inhibition of RBL-1 5-lipoxygenase; Value ranges from 0.4-2.2. The format is cell-based.
The target is the same in experiment [12]. The experiment in a line: In vitro inhibition of RBL-1 5-lipoxygenase; Value ranges from 3.8-7.1. It is filed as cell-based.
Experiment [13] has the same target. The experiment in a line: In vitro inhibition of RBL-1 5-lipoxygenase; Value ranges from 1.4-3.2. It is filed as cell-based.
For experiment [14] the target is unchanged. The experiment in a line: In vitro inhibition of RBL-1 5-lipoxygenase; Value ranges from 2.46-2.63. The format is cell-based.
Experiment [15] has the same target. The experiment in a line: In vitro inhibition of RBL-1 5-lipoxygenase; Value ranges from 3.3-3.5. It is filed as cell-based.
Experiment [16] has the same target. The experiment in a line: In vitro inhibition of RBL-1 5-lipoxygenase; Value ranges from 1.0-2.4. The format is cell-based.
Experiment [17] has the same target. The experiment can be described thus: In vitro inhibition of RBL-1 5-lipoxygenase; Value ranges from 0.3-1.6. It is filed as cell-based.
The target is the same in experiment [18]. The experiment can be described thus: In vitro inhibition of RBL-1 5-lipoxygenase; Value ranges from 1.9-2.4. It is filed as cell-based.
Experiment [19] shares this target. The experiment in a line: In vitro inhibition of RBL-1 5-lipoxygenase; Value ranges from 1.8-2.8. It is filed as cell-based.
The target is the same in experiment [20]. The experiment in a line: In vitro inhibition of RBL-1 5-lipoxygenase; Value ranges from 4.9-11.6. It is filed as cell-based.
For experiment [21], the system named is Rattus norvegicus. The experiment is described as §1. The format is functional.
Experiment [22] concerns the target T1, Polyunsaturated fatty acid 5-lipoxygenase. The experiment in a line: In vitro inhibition of RBL-1 5-lipoxygenase; Value ranges from 1.7-2.6. It is filed as cell-based.
Experiment [23] deals with Rattus norvegicus. The experiment can be described thus: Inhibition of monocyte accumulation (exudate volume) in a rat pleural exudate model of inflammation at 6 ug/kg administered perorally. It is filed as functional. Particulars: po.
In experiment [24] the test system is Rattus norvegicus. The experiment can be described thus: Inhibition of monocyte accumulation (exudate volume) in a rat pleural exudate model of inflammation at 3 ug/kg administered perorally. It is filed as functional. Particulars: po.
Experiment [25] deals with Rattus norvegicus. The experiment can be described thus: Inhibition of monocyte accumulation (exudate volume) in a rat pleural exudate model of inflammation at 24 ug/kg administered perorally. It is filed as functional. Particulars: po.
The target in experiment [26] is T1, Polyunsaturated fatty acid 5-lipoxygenase. The experiment in a line: In vitro inhibition of RBL-1 5-lipoxygenase; Value ranges from 4.0-6.4. The format is cell-based.
Experiment [27] shares this target. The experiment can be described thus: In vitro inhibition of RBL-1 5-lipoxygenase; Value ranges from 1.8-5.7. The format is cell-based.
Experiment [28] shares this target. The experiment in a line: In vitro inhibition of RBL-1 5-lipoxygenase; Value ranges from 7.5-11.8. It is filed as cell-based.
Experiment [29] has the same target. The experiment in a line: In vitro inhibition of RBL-1 5-lipoxygenase; Value ranges from 1.3-2.8. It is filed as cell-based.

In general, IC50 refers to the point on the concentration scale where inhibition reaches its midpoint. In experiment [1], `Cc1ccc(O)c2[nH]c(-c3ccc(N(C)C)cc3)nc12` showed a concentration for half-maximal inhibition (IC50) of 1300 nM.

In the case of `COc1ccc(Cc2nc3c(C)cc(C(C)(C)C)c(O)c3[nH]2)cc1`, the half-maximal inhibitory concentration (IC50) in [2] was 2200 nM.

The compound `Cc1ccc(O)c2[nH]c(-c3ccccc3)nc12` displayed an IC50 in [3] of 1200 nM.

Broadly, the Inhibition is the relative decrease from the control value, in per cent. `C[C@@H]1C[C@H]2[C@@H]3CCC4=CC(=O)C=C[C@]4(C)[C@@]3(F)[C@@H](O)C[C@]2(C)[C@@]1(O)C(=O)CO` [DEXAMETHASONE]: the Inhibition in experiment [4] is given as 80%; in experiment [5] it was 71%.

For the compound `CC1=C(C)C(=O)C(CCCCC#CCCCC#CCO)=C(C)C1=O` [DOCEBENONE], in experiment [6], the IC50 is 2000 nM. The Inhibition in experiment [7] was 77%.

Regarding `Cc1cc(C(C)(C)C)c(O)c2[nH]c(Cc3ccccc3)nc12`, the concentration for half-maximal inhibition (IC50) in experiment [8] turned out to be 1300 nM.

For orientation: inhibition means the percentage by which the read-out fell short of the control. For the compound `Cc1ccc(O)c2[nH]c(Cc3ccc4ccccc4c3)nc12`, the inhibition in experiment [9] is over 90%.

`Oc1cccc2[nH]c(Cc3ccccc3)nc12`: in experiment [6], the half-maximal inhibitory concentration (IC50) came out at 20000 nM.

On to `O=C1CCN(c2ccccc2)N1` [PHENIDONE], for which the Inhibition in experiment [7] was found to be 70%.

In experiment [10], `CCOc1ccc(Cc2nc3c(C)ccc(O)c3[nH]2)cc1` showed a half-inhibitory concentration (IC50) of 3000 nM.

As for `Cc1ccc(O)c2nc(Cc3ccccc3)[nH]c12`, inhibition in experiment [11] was half-maximal at 1200 nM (IC50).

In experiment [7], `COc1ccc(Cc2nc3c(C)ccc(O)c3[nH]2)cc1OC.Cl` came in with an Inhibition of 55%. In experiment [12], this compound showed an IC50 of 5200 nM.

For `COc1ccc(-c2nc3c(C)ccc(O)c3[nH]2)cc1`, the concentration for half-maximal inhibition (IC50) in [13] amounted to 2200 nM.

Take `Cc1ccc(Cc2nc3c(O)ccc(C)c3[nH]2)cc1`: the half-inhibitory concentration (IC50) in experiment [14] is 2540 nM.

Regarding `COc1ccccc1Cc1nc2c(C)ccc(O)c2[nH]1.Cl`, the Inhibition in [7] stood at 64%. The IC50 in [15] was determined as 3400 nM.

In the case of `COc1cccc(Cc2nc3c(C)ccc(O)c3[nH]2)c1`, in experiment [16], the IC50 came to 1700 nM.

Consider `Cc1ccc(O)c2[nH]c(Cc3ccc(Cl)cc3)nc12`, for which the midpoint of inhibition in experiment [17], the IC50, lay at 1000 nM.

As to `Cc1ccc(O)c2[nH]c(Cc3cccs3)nc12`, the half-inhibitory concentration (IC50) in experiment [18] came out at 2100 nM.

`CC(Cc1ccc(O)c(O)c1)C(C)Cc1ccc(O)c(O)c1` (stereo not given) [NORDIHYDROGUAIARETIC ACID]: in experiment [7], the Inhibition turned out to be 64%.

Take `Cc1ccc(O)c2[nH]c(Cc3cccc4ccccc34)nc12`: in [19], the 50% inhibitory concentration (IC50) came out at 2300 nM.

Compound `CCCc1nc2c(C)ccc(O)c2[nH]1` returned a concentration for half-maximal inhibition (IC50) in experiment [6] of about 10000 nM.

`NC1=NN(c2cccc(C(F)(F)F)c2)CC1` [BW-755C] registered an Inhibition in experiment [7] of 25%.

For `Cc1ccc(O)c2[nH]c(Cc3ccc(O)cc3)nc12.Cl`, the Inhibition in experiment [7] was 58%. The same compound returned a 50% inhibitory concentration (IC50) in experiment [20] of 6900 nM.

Turning to `COc1ccc(Cc2nc3c(C)ccc(O)c3[nH]2)cc1.Cl`, the Inhibition in [21] came out at 58%. Moreover, half-maximal inhibition in experiment [22] (IC50) required 2100 nM.

The term inhibition in vivo denotes the relative decrease from the control value, in per cent. Regarding `Cc1cc(C(C)(C)C)c(O)c2[nH]c(C(F)(F)F)nc12`, the inhibition in vivo at 0.006 mg/kg in experiment [23] came to 49%. The compound also displayed an inhibition in vivo at 0.003 mg/kg in [24] of 52%. This compound yielded an inhibition in vivo at 0.024 mg/kg in experiment [25] of 48%.

For the compound `Cc1ccc(O)c2[nH]c(-c3cccc(C(F)(F)F)c3)nc12`, in [9], the inhibition was over 90%.

The compound `Cc1ccc(O)c2nc(Cc3cccnc3)[nH]c12` showed a 50% inhibitory concentration (IC50) in experiment [26] of 5000 nM.

`Cc1ccc(O)c2[nH]c(-c3ccco3)nc12` had an IC50 in experiment [27] of 3300 nM.

Compound `COc1ccc(Cc2nc3c(O)cccc3[nH]2)cc1` gave a half-maximal inhibitory concentration (IC50) in [6] of 20000 nM.

In turn, `COc1cc(Cc2nc3c(C)ccc(O)c3[nH]2)cc(OC)c1OC.Cl` showed an Inhibition in [7] of 59%. In addition, the IC50 in experiment [28] was determined as 9700 nM.

`Cc1ccc(O)c2[nH]c(CCc3ccccc3)nc12` showed an IC50 in [29] of 2100 nM.
